Assays:
Format in all cases: cell-based, human
[1] = tested on: VP-MCC cell lines (WAGA, MKL-1, MKL-2); test: qHTS cell viability, VP-MCC cell lines as a group (mean AUC, VP.MCC.avg); details: re-tested in triplicate, follow-up screen
[2] = tested on: GDSC cancer cell lines; test: Genomics of Drug Sensitivity in Cancer (GDSC) IC50 comparison across cancer cell lines; details: own IC50 estimates compared with public IC50 data
Method: Palo Alto, CA, USA) for these compounds from our small molecule screen. Following the graphing format in the GDSC database, compounds were ranked by IC50 and plotted in Rstudio using ggplot2, ggrepel, and scales packages. page 9: Supplementary Fig. S6. Au rora kinase inhibi tors mor e potentl y reduc e viability in VP-MCC than VN-MCC. […] Cell viability was measured by CellTiter- Glo at 72 h and by manual cell counts at 144 h. […] Consistent across n = 3 replicates . B) IC50 values (molar) for each aurora kinase inhibitor in each MCC cell line. […] IC50 values from GDSC (Gray-scale and green) were combined with IC50 values determined in our study (purple) and then ranked. n = number of experimental replicates for each cell line.

[3] = tested on: MKL-2 cells (VP-MCC); test: qHTS cell viability (CellTiter-Glo, 72 h; primary and follow-up small molecule screen); details: for Percent viability: MKL2, 72h
[4] = tested on: WAGA cells (VP-MCC); test: as above; details: WAGA; for Percent viability: 72h
[5] = tested on: UISO cells (VN-MCC); test: as above; details: UISO; for Percent viability: 72h
[6] = tested on: MCC26 cells (VN-MCC); test: as above; details: for Percent viability: MCC26, 72h
[7] = tested on: MKL-1 cells (VP-MCC); test: as above; details: for Percent viability: MKL1, 72h
[8] = tested on: MCC13 cells (VN-MCC); test: as above; details: for Percent viability: MCC13, 72h

Cc1cc(Nc2cc(N3CCN(C)CC3)nc(Sc3ccc(NC(=O)C4CC4)cc3)n2)[nH]n1 [Tozasertib, reference compound]
VP-MCC viability (in words) [1]: consistently and potently reduced VP-MCC viability | potency in VP-MCC cell lines versus other human cancer cell lines (GDSC) [2]: higher in VP-MCC cell lines than in hundreds of other human cancer cell lines | Percent viability ([3]; Log (M) -5.33646): 29.1% | Percent viability ([3]; Log (M) -5.81358): 82.7% | Percent viability ([3]; Log (M) -6.2907): 74.7% | Percent viability ([3]; Log (M) -6.76782): 62.9% | Percent viability ([3]; Log (M) -7.24494): 51.8% | Percent viability ([3]; Log (M) -7.72207): 51.5% | Percent viability ([3]; Log (M) -8.19919): 79.6% | Percent viability ([3]; Log (M) -8.67631): 111.3% | Percent viability ([3]; Log (M) -9.15343): 116.9% | Percent viability ([3]; Log (M) -9.63055): 110.0% | Percent viability ([3]; Log (M) -10.1077): 101.6% | Area under the dose-response curve (AUC) MKL-2 Replicate 1 ([3]; follow-up screen, MKL-2, replicate 1): 388.8 | Area under the dose-response curve (AUC) MKL-2 Replicate 2 ([3]; follow-up screen, MKL-2, replicate 2): 384.9 | Area under the dose-response curve (AUC) MKL-2 Replicate 3 ([3]; follow-up screen, MKL-2, replicate 3): 409.6 | Percent viability ([4]; Log (M) -5.33646): 23.8% | Percent viability ([4]; Log (M) -5.81358): 31.7% | Percent viability ([4]; Log (M) -6.2907): 25.7% | Percent viability ([4]; Log (M) -6.76782): 41.2% | Percent viability ([4]; Log (M) -7.24494): 47.8% | Percent viability ([4]; Log (M) -8.19919): 107.2% | Percent viability ([4]; Log (M) -8.67631): 105.4% | Percent viability ([4]; Log (M) -9.15343): 101.2% | Percent viability ([4]; Log (M) -9.63055): 100.0% | Percent viability ([4]; Log (M) -10.1077): 100.0% | Area under the dose-response curve (AUC) WAGA Replicate 1 ([4]; follow-up screen, replicate 1): 353.1 | Area under the dose-response curve (AUC) WAGA Replicate 2 ([4]; follow-up screen, replicate 2): 343.3 | Area under the dose-response curve (AUC) WAGA Replicate 3 ([4]; follow-up screen, replicate 3): 330.6 | Percent viability ([5]; Log (M) -5.33646): 29.1% | Percent viability ([5]; Log (M) -5.81358): 58.8% | Percent viability ([5]; Log (M) -6.2907): 69.6% | Percent viability ([5]; Log (M) -6.76782): 70.0% | Percent viability ([5]; Log (M) -7.24494): 74.4% | Percent viability ([5]; Log (M) -7.72207): 84.6% | Percent viability ([5]; Log (M) -8.19919): 94.4% | Percent viability ([5]; Log (M) -8.67631): 100.2% | Percent viability ([5]; Log (M) -9.15343): 102.6% | Percent viability ([5]; Log (M) -9.63055): 98.1% | Percent viability ([5]; Log (M) -10.1077): 97.1% | Area under the dose-response curve (AUC) UISO Replicate 1 ([5]; follow-up screen, replicate 1): 350.8 | Area under the dose-response curve (AUC) UISO Replicate 2 ([5]; follow-up screen, replicate 2): 389.2 | Area under the dose-response curve (AUC) UISO Replicate 3 ([5]; follow-up screen, replicate 3): 355.0 | Percent viability ([6]; Log (M) -5.33646): 26.6% | Percent viability ([6]; Log (M) -5.81358): 59.4% | Percent viability ([6]; Log (M) -6.2907): 79.7% | Percent viability ([6]; Log (M) -6.76782): 87.3% | Percent viability ([6]; Log (M) -7.24494): 90.3% | Percent viability ([6]; Log (M) -7.72207): 87.4% | Percent viability ([6]; Log (M) -8.19919): 90.8% | Percent viability ([6]; Log (M) -8.67631): 96.9% | Percent viability ([6]; Log (M) -9.15343): 92.6% | Percent viability ([6]; Log (M) -9.63055): 87.8% | Percent viability ([6]; Log (M) -10.1077): 88.7% | Area under the dose-response curve (AUC) MCC26 Replicate 1 ([6]; follow-up screen, MCC26, replicate 1): 399.1 | Area under the dose-response curve (AUC) MCC26 Replicate 2 ([6]; follow-up screen, MCC26, replicate 2): 396.0 | Area under the dose-response curve (AUC) MCC26 Replicate 3 ([6]; follow-up screen, MCC26, replicate 3): 410.6 | Percent viability ([7]; Log (M) -5.33646): 35.7% | Percent viability ([7]; Log (M) -5.81358): 29.2% | Percent viability ([7]; Log (M) -6.2907): 29.7% | Percent viability ([7]; Log (M) -6.76782): 36.8% | Percent viability ([7]; Log (M) -7.24494): 39.2% | Percent viability ([7]; Log (M) -7.72207): 37.5% | Percent viability ([7]; Log (M) -8.19919): 101.6% | Percent viability ([7]; Log (M) -8.67631): 103.8% | Percent viability ([7]; Log (M) -9.15343): 98.2% | Percent viability ([7]; Log (M) -9.63055): 98.1% | Percent viability ([7]; Log (M) -10.1077): 100.0% | Area under the dose-response curve (AUC) MKL-1 Replicate 1 ([7]; follow-up screen, MKL-1, replicate 1): 300.3 | Area under the dose-response curve (AUC) MKL-1 Replicate 2 ([7]; follow-up screen, MKL-1, replicate 2): 306.3 | Area under the dose-response curve (AUC) MKL-1 Replicate 3 ([7]; follow-up screen, MKL-1, replicate 3): 312.1 | Percent viability ([8]; Log (M) -5.33646): 14.5% | Percent viability ([8]; Log (M) -5.81358): 69.4% | Percent viability ([8]; Log (M) -6.2907): 72.9% | Percent viability ([8]; Log (M) -6.76782): 89.8% | Percent viability ([8]; Log (M) -7.24494): 103.0% | Percent viability ([8]; Log (M) -7.72207): 85.9% | Percent viability ([8]; Log (M) -8.19919): 106.1% | Percent viability ([8]; Log (M) -8.67631): 96.2% | Percent viability ([8]; Log (M) -9.15343): 118.3% | Percent viability ([8]; Log (M) -9.63055): 100.0% | Percent viability ([8]; Log (M) -10.1077): 108.5% | Area under the dose-response curve (AUC) MCC13 Replicate 1 ([8]; follow-up screen, MCC13, replicate 1): 420.2 | Area under the dose-response curve (AUC) MCC13 Replicate 2 ([8]; follow-up screen, MCC13, replicate 2): 430.9 | Area under the dose-response curve (AUC) MCC13 Replicate 3 ([8]; follow-up screen, MCC13, replicate 3): 459.4

From publication PMC11822212, “High-throughput screening identifies Aurora kinase B as a critical therapeutic target for Merkel cell carcinoma” (Nature Communications, 2025)
